Tests used:
[1] = system: Splenocytes from a mouse spleen; experiment: Experimental Example 1: cytokine (IFN-γ, IL-4) production by mouse splenocytes, sandwich ELISA of culture supernatant; assay type: cell-based; details: mouse splenocytes 2×10^5 cells/well, reagent 40 ng/mL, 72 hours, FIG. 1
Experimental: Splenocytes from a mouse spleen were prepared using an RPMI1640 culture broth (produced by Sigma) containing 10% Fetal calf serum (FCS) at 2×10^5 cells/well (96-well plate). A reagent was added to this culture broth at a concentration of 40 ng/mL; 3 days later (72 hours later), the cytokine content in the culture supernatant was measured by a sandwich ELISA technique. The test substances used were compound 11, compound 12 and compound 13 as obtained in Examples 1 to 3, with a compound represented by the following formula (a) (α-GalCer, hereinafter referred to as “compound a”) used as the comparator.
(§1) These findings confirm that the compounds of the present invention are effective as therapeutic drugs for pathologic conditions that can be ameliorated by IL-4.

[2] = system: Splenocytes taken out from a mouse spleen; experiment: Experimental Example 2: cytokine (IFN-γ, IL-4) production by mouse splenocytes, sandwich ELISA of culture supernatant; assay type: cell-based; details: reagent 20 ng/mL, 48 hours, FIG. 2; for IFN-γ production amount and IL-4 production amount (cytokine production pattern): mouse splenocytes 2×10^5 cells/well, culture supernatant; for IL-4-predominant cytokine production compared with compound b (OCH): mouse splenocytes
Experimental: Splenocytes taken out from a mouse spleen were prepared using an RPMI1640 culture broth (produced by Sigma) containing 10% Fetal calf serum (FCS) at 2×10^5 cells/well (96-well plate). A reagent was added to this culture broth at a concentration of 20 ng/mL; 2 days later (48 hours later), the cytokine content in the culture supernatant was measured by a sandwich ELISA technique. The test substances used were compound 11, compound 12, compound 13 and compound 48 as obtained in Examples 1 to 3 and Reference Example, with compound a and a compound represented by the following formula (b) (OCH, hereinafter referred to as compound b) used as the comparators.
as §1

[3] = system: Splenocytes taken out from a mouse spleen; details: stated as known; cited from earlier work

Row | Structure (SMILES) | IFN-γ production amount and IL-4 production amount (cytokine production pattern) [1] | IFN-γ production amount and IL-4 production amount (cytokine production pattern) [2] | IL-4-predominant cytokine production compared with compound b (OCH) [2] | cytokine production pattern as known for the comparator [3]
1 | CCCCCCCCCCCCCC[C@@H](O)[C@@H](O)[C@H](CO[C@H]1O[C@H](CO)[C@H](O)[C@H](O)[C@H]1O)NS(=O)(=O)c1ccccc1C [compound 12, (2S,3S,4R)-1-(α-D-galactopyranosyloxy)-2-(o-toluenesulfonylamino)-3,4-octadecanediol] | IL-4-predominant cytokine production pattern | IL-4-predominant cytokine production pattern with smaller amounts of IFN-γ produced | capable of inducing IL-4-predominant cytokine production to higher extents than compound b | –
2 | CCCCCCCCCCCCCCCCCCCCCCCC(=O)N[C@@H](COC1OC(CO)C(O)C(O)C1O)[C@H](O)[C@H](O)CCCCC (some centres unmarked) [compound b] | – | – | – | induces IL-4-predominant cytokine production
3 | CCCCCCCCCCCCCC[C@@H](O)[C@@H](O)[C@H](CO[C@H]1O[C@H](CO)[C@H](O)[C@H](O)[C@H]1O)NS(=O)(=O)c1cccc(C)c1 [compound 13, (2S,3S,4R)-1-(α-D-galactopyranosyloxy)-2-(m-toluenesulfonylamino)-3,4-octadecanediol] | IL-4-predominant cytokine production pattern | IL-4-predominant cytokine production pattern with smaller amounts of IFN-γ produced | capable of inducing IL-4-predominant cytokine production to higher extents than compound b | –
4 | CCCCCCCCCCCCCCCCCCCCCCCCCC(=O)N[C@@H](COC1OC(CO)C(O)C(O)C1O)[C@H](O)[C@H](O)CCCCCCCCCCCCCC (some centres unmarked) [compound a, reference compound] | produced both IFN-γ and IL-4 in large amounts | produced both IFN-γ and IL-4 in large amounts | – | –
5 | CCCCCCCCCCCCCC[C@@H](O)[C@@H](O)[C@H](CO[C@H]1O[C@H](CO)[C@H](O)[C@H](O)[C@H]1O)NS(=O)(=O)c1ccc(C)cc1 [compound 11, (2S,3S,4R)-1-(α-D-galactopyranosyloxy)-2-(p-toluenesulfonylamino)-3,4-octadecanediol] | IL-4-predominant cytokine production pattern | IL-4-predominant cytokine production pattern with smaller amounts of IFN-γ produced | capable of inducing IL-4-predominant cytokine production to higher extents than compound b | –
6 | CCCCCCCCCCCCCCCCS(=O)(=O)N[C@@H](CO[C@H]1O[C@H](CO)[C@H](O)[C@H](O)[C@H]1O)[C@H](O)[C@H](O)CCCCCCCCCCCCCC [compound 48, (2S,3S,4R)-1-(α-D-galactopyranosyloxy)-2-(hexadecanesulfonylamino)-3,4-octadecanediol] | – | IL-4-predominant cytokine production pattern with smaller amounts of IFN-γ produced | capable of inducing IL-4-predominant cytokine production to higher extents than compound b | –

From patent publication US8163705B2, “Glycolipid and use thereof” (Riken, priority 2006, dated 2012)
